What was measured:
[1] = test system: J774 cells; assay: Live cell fluorescence microscopy of J774 cells; format: cell-based, mouse; details: for cellular uptake and distribution of Alexa488-labelled OVA: with or without parallel PCI treatment, FIG. 9A
Description: Fifty thousand J774.1 cells (ATCC no. TIB-67 mouse monocyte macrophage cell line) were seeded out on no. 1.5 glass coverslips (Glasswarenfabrik Karl Hecht KG, Sondheim, Germany) in 4-well plates overnight. The cells were incubated with 0.05 or 1,0 μg/ml TPCS2a for 18 hours and washed three times in drug-free culture medium prior to incubation with 25 μg/ml OVA-Alexa488 for four hours. Cells were subsequently washed in ice-cold PBS with Ca^2+ and Mg^2+ prior to microscopy. Images of cellular localization and PCI-induced cytosolic release of OVA was obtained by epi-fluorescence microscopy using a Plan-Apochromat 63×/1.40 Oil differential interference contrast (DIC) objective or 40×/0.95 Plan-Apochromat phase contrast (Korr Ph3 M27) objective with a Zeiss Axioimager Z.1 microscope (Carl Zeiss, Oberkochen, Germany). Fluorescence of Alexa488-labelled OVA was obtained by using a 470/40 nm band pass (BP) excitation filter with a beam splitter at 495 nm and a 525/50 nm BP emission filter. TPCS2a fluorescence was obtained by using a 395-440 nm BP excitation filter with a beam splitter at 460 nm, and a 620 nm long pass filter. Micrographs were recorded with a digital AxioCam MRm camera and processed and analysed by use of the Axiovision Software (Carl Zeiss).

[2] = test system: bone marrow DCs; assay: Fluorescence microscopy of cytosolic antigen release in dendritic cells; format: cell-based, C57BL/6 mice; details: incubated with TPCS2a and Alexa488-labelled OVA
Description: Cells (J774.1 (ATCC no. TIB-67 mouse monocyte macrophage cell line) or bone marrow DCs from C57BL/6 mice) were incubated with 0.05 or 1.0 μg/ml TPCS2a and 25 μg/ml OVA-Alexa488 for 18 hours and washed three times in drug-free culture medium prior to incubation for four hours before light activation (3 min LumiSource exposure). The cells were subsequently washed in ice-cold PBS with Ca^2+ and Mg^2+ prior to microscopy. Images of cellular localization and PCI-induced cytosolic release of OVA were obtained by epi-fluorescence microscopy using a Plan-Apochromat 63×/1.40 Oil differential interference contrast (DIC) objective or 40×/0.95 Plan-Apochromat phase contrast (Korr Ph3 M27) objective with a Zeiss Axioimager Z.1 microscope (Carl Zeiss, Oberkochen, Germany). Fluorescence of Alexa488-labelled OVA was obtained by using a 470/40 nm band pass (BP) excitation filter with a beam splitter at 495 nm and a 525/50 nm BP emission filter. TPCS2a fluorescence was obtained by using a 395-440 nm BP excitation filter with a beam splitter at 460 nm, and a 620 nm long pass filter. Micrographs were recorded with a digital AxioCam MRm camera and processed and analysed by use of the Axiovision Software (Carl Zeiss).

[3] = test system: SIINFEKL-specific CD8 T cells; assay: PCI immunisation of OT-I-spiked mice, SIINFEKL pentamer flow cytometry (Example 2); format: in vivo, C57BL/6 mice; details: TPCS2a at 10, 25, 50, 100 and 250 μg; data not shown
Description: One day prior to the immunisation, spleens and lymph nodes were isolated from female OT-1 mice, and erythrocytes were removed by lysis (RBC Lysing Buffer Hybri-Max from Sigma-Aldrich) from the homogenised cell suspensions. The remaining cells were washed in PBS, filtered through 70 micron nylon strainers, and 2×10^6 OT-1 cells were administered by intravenous injection into recipient female C57BLJ6 mice; the adoptive transfer of SIINFEKL-specific CD8 T cells facilitates monitoring of the immune response by flow cytometry. One day or 8 hours later, mice were bled by tail bleeding, and the blood was collected in heparin-containing tubes for analysis of the baseline frequency of OVA-specific CD8 T cells.
(§1) Then, the mice were shaved on the abdominal area, and the vaccines, consisting of OVA or of a mixture of OVA and TPCS2a, were injected intradermally using syringes with 29G needles. The vaccines were kept light protected and used within 60 minutes of preparation. The vaccines were given in two injections of 50 μl each, on the left and right side of the abdominal mid line. OVA was tested at 10 to 100 μg per dose. The TPCS2a dose was 7.5 to 250 μg.
(§2) On day 0, prior to vaccination and on various days thereafter (e.g. day 6, 7, 8, 9, 14, 23, as indicated) mice were bled by tail bleeding and erythrocytes were removed by lysis, before analysis of antigen-specific CD8 T cells by flow cytometry. At the end of the experiment (typically 11, 12, 14 or 23 days), the mice were euthanized and the splenocytes analysed ex vivo. At various time points after the TPCS2a injection (0-48 hours), the mice were anaesthetised by intraperitoneal injection of a mixture of ketamine (25 mg/kg body weight) and xylazin (4 mg/kg) and placed on a light source (for illumination and activation of the photosensitiser TPCS2a). The light dose was 6 minutes, if not otherwise stated. The whole procedure is illustrated in the scheme of FIG. 6A. The illumination of mice using LumiSource™ is imaged in FIG. 6B.
The frequency of OVA-specific CD8 T-cells in blood was monitored by staining the cells with anti-CD8 antibody and H-2K^b/SIINFEKL ProS pentamer (Proimmune, Oxford, UK) for analysis by flow cytometry. The activation status of the cells was further analysed by testing the expression of CD44 and CD69 by flow cytometry. Intracellular staining for IFN-γ was done after overnight stimulation of splenocytes in 24-well plates with the CD8 epitope OVA257-264 (SIINFEKL) at 37 ° C. Brefeldin A was added during the last 4 hours. The cells were then washed and fixed with 4% formaldehyde in PBS for 10 min on ice. Anti-CD16/32 was added to block unspecific binding to Fc receptors. The cells were then permeabilised with 0.1% NP40 in PBS for 3 min and washed before staining with anti-IFN-γ, anti-CD8 and ant-CD44 antibodies (eBioscience or BD Pharmingen). The cells were acquired using FACSCanto (BD Biosciences, San Jose, USA) and analysed using FlowJo 8.5.2 software (Tree Star, Inc., Ashland, Oreg.).

[4] = Local reaction at the illuminated injection site (Example 2); format: in vivo, C57BL/6 mice; details: higher TPCS2a doses; days 1-3 after illumination; data not shown
Description: as §1, §2

Row | Substance | cellular uptake and distribution of Alexa488-labelled OVA [1] | localisation of antigen and photosensitiser ([2]; before light, FIG. 5A) | antigen distribution after light activation ([2]; FIG. 5B) | relative localisation of antigen and TPCS2a after light activation ([1]; FIG. 9B) | OVA-specific immune response with increasing TPCS2a dose [3] | local inflammation after illumination [4]
1 | Alexa488-labelled OVA: Alexa488-labelled OVA protein for fluorescence microscopy | located close to the cell surface in concise spherical shaped bodies | – | – | – | – | –
2 | tetraphenyl chlorin disulfonate [TPCS2a] | diffuse green fluorescence | co-localisation of antigen and photosensitiser in DC endosomes | release of the antigen into the cytosol could be observed over 15 minutes | co-localised | increased the measured OVA-specific immune response | more local inflammation with transient erythema

— patent publication US10973896B2, “Treatment or prevention of melanoma using photochemical internalization of a melanoma antigen” (PCI Biotech AS, priority 2014, dated 2021)
